As usually defined, the IC50 is the midpoint of a concentration-inhibition curve.

Structures are written as SMILES.

This passage reports IC50 and MAO-A/MAO-B results from patent publication US5356916A, “1,2,4-oxadiazole derivatives having monoamine oxidase B enzyme-inhibitory activity” (Wakamoto Pharmaceutical Co., Ltd., priority 1991, dated 1994).

The target of one assay is T1, MAO-B (Rattus norvegicus, UniProt P19643).
T1 construct: mitochondria prepared from the liver of rats; from tissue; host or cells: rat liver mitochondria
T1 sequence (P19643 1-520): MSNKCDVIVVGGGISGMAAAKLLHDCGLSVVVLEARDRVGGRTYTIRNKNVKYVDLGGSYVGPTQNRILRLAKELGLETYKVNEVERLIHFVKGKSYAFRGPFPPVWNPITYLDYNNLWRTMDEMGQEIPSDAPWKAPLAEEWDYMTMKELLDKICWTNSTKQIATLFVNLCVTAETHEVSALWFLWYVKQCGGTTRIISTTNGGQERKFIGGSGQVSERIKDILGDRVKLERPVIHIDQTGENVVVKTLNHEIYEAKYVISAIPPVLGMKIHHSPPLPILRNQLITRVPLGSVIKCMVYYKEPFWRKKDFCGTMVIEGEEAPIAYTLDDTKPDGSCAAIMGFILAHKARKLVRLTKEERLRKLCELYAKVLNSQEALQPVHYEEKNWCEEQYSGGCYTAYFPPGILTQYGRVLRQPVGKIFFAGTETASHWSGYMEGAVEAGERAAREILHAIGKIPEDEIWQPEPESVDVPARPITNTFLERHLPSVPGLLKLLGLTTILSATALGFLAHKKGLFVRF
The assay is described as follows: In vitro inhibition of monoamine oxidase B (oxygen electrode, rat liver mitochondria, substrate benzylamine). The format is biochemical. Particulars: for IC50: rat liver mitochondria, 37° C., preincubated, substrate benzylamine (BA), read-out: IC50 MAO-B; for MAO-A/MAO-B: ratio of IC50 values MAO-A/MAO-B. As to the method:
(§1) The MAO-inhibitory activity of the compounds of the present invention was determined according to an MAO-inhibitory activity determining method using the oxygen electrode disclosed in K. F. Tipton et al., Biochem. J., 1968,108, pp. 95-99.
(§2) A potassium phosphate buffer solution of mitochondria prepared from the liver of rats was preincubated at 37° C. with or without a compound of the present invention and then a substrate was added to the mixture to thus initiate the reaction at that temperature while the dissolved oxygen-consuming reaction due to MAO activity in the reaction solution was monitored by the oxygen electrode. In this respect, the substrates used were serotonin (5-HT) for the MAO-A activity determination and benzylamine (BA) for the MAO-B activity determination. The MAO-inhibitory activity was evaluated in terms of an IC5.sbsb.0 value which is the concentration of a compound tested required for reducing the rate of oxygen-consuming reaction performed in the presence of the compound to 50% of that of the reaction performed in the absence of the compound.

The target of another assay is T2, MAO-A (Rattus norvegicus, UniProt P21396).
T2 construct: mitochondria prepared from the liver of rats; from tissue; host or cells: rat liver mitochondria
T2 sequence (P21396 1-526): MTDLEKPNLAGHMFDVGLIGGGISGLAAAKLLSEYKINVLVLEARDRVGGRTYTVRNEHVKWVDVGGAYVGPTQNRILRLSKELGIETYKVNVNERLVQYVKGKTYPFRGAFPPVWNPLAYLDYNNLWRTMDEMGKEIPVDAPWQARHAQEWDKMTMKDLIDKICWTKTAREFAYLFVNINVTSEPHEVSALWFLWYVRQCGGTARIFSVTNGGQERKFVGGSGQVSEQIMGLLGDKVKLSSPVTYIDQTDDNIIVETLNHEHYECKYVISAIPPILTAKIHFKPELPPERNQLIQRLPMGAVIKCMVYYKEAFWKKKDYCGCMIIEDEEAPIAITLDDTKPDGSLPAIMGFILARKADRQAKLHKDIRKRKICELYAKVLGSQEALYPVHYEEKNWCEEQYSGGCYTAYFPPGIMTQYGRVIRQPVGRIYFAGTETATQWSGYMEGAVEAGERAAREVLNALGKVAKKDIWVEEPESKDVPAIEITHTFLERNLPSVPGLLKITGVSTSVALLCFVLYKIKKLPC
The assay is described as follows: In vitro inhibition of monoamine oxidase A (oxygen electrode, rat liver mitochondria, substrate serotonin). As to conditions: rat liver mitochondria, 37° C., preincubated, substrate serotonin (5-HT); read-out: IC50 MAO-A. The format is biochemical. As to the method: as §1, §2

For `CCc1nc(-c2ccc(OCCCn3ccnc3)cc2)no1` [Example 1, 3-[4-[3-(1H-imidazol-1-yl)propoxy]phenyl]-5-ethyl-1,2,4-oxadiazole], on MAO-B, the IC50 was determined as 0.3 µM and the MAO-A/MAO-B amounted to 670. Further, at MAO-A, the IC50 was 200 µM.

Consider `ClC(Cl)(Cl)c1nc(-c2ccc(OCCCn3ccnc3)cc2)no1` [Example 2, 3-[4-[3-(1H-imidazol-1-yl)propoxy]phenyl]-5-tri chloromethyl-1,2,4-oxadiazole], for which, on MAO-B, the IC50 turned out to be 0.03 µM and the MAO-A/MAO-B is given as 6700. For the same molecule, the half-inhibitory concentration (IC50) on MAO-A was 200 µM.

Consider `CCCc1nc(-c2ccc(OCCCn3ccnc3)cc2)no1` [Example 3, 3-[4-[3-(1H-imidazol-1-yl)propoxy]phenyl]-5-propyl-1,2,4-oxadiazole], for which, on MAO-B, the IC50 worked out at 1 µM and the MAO-A/MAO-B is on record as 200. Further, the IC50 at MAO-A is 200 µM.

As for `c1cn(CCCOc2ccc(-c3noc(C4CC4)n3)cc2)cn1` [Example 4, 3-[4-[3-(1H-imidazol-1-yl)propoxy]phenyl]-5-cyclo-propyl-1,2,4-oxadiazole], on MAO-B, the IC50 was 2 µM and the MAO-A/MAO-B was determined as 50. Besides, at MAO-A, the IC50 amounted to 100 µM.

With `c1ccc(-c2nc(-c3ccc(OCCCn4ccnc4)cc3)no2)cc1` [Example 5, 3-[4-[3-(1H-imidazol-1-yl)propoxy]phenyl]-5-phenyl-1,2,4-oxadiazole], the IC50 is 50 µM on MAO-B and 100 µM at MAO-A. Besides, the MAO-A/MAO-B on MAO-B is reported as 2.

On to `CCc1nc(-c2ccc(OCCCn3ccnc3C)cc2)no1` [Example 6, 3-[4-[3-(2-methyl-1H-imidazol-1-yl)propoxy]phenyl]-5-ethyl-1,2,4-oxadiazole], for which, on MAO-B, the IC50 was 150 µM and the MAO-A/MAO-B stood at 1. The IC50 on MAO-A was determined as 150 µM.

With `CCc1nc(-c2ccc(OCCCn3cnc4ccccc43)cc2)no1` [Example 7, 3-[4-[3-(1H-benzimidazol-1-yl)propoxy]phenyl]-5-ethyl-1,2,4-oxadiazole], at MAO-B, the IC50 stood at 160 µM and the MAO-A/MAO-B was determined as 0.9. For the same molecule, the IC50 at MAO-A stood at 150 µM.

Take `CCc1nc(-c2ccc(OCCCN(CC)CC)cc2)no1` [Example 8, 3-[4-(3-diethylaminopropoxy)phenyl]-5-ethyl-1,2,4-oxadiazole]: the half-maximal inhibitory concentration (IC50) was found to be 25 µM at MAO-B and 100 µM on MAO-A. For the same molecule, the MAO-A/MAO-B on MAO-B is given as 4.

As for `CCCN(CCC)CCCOc1ccc(-c2noc(-c3ccccc3)n2)cc1` [Example 9, 3-[4-(3-dipropylaminopropoxy)phenyl]-5-phenyl-1,2,4-oxadiazole], on MAO-B, the IC50 came to 50 µM and the MAO-A/MAO-B amounted to 2. Further, the half-inhibitory concentration (IC50) on MAO-A amounted to 100 µM.

Take `CCc1nc(-c2ccc(OCCCN3C(=O)c4ccccc4C3=O)cc2)no1` [Example 10, 3-[4-(3-phthalimidopropoxy)phenyl]-5-ethyl-1,2,4-oxadiazole]: on MAO-B, the IC50 was 100 µM and the MAO-A/MAO-B is listed as 1. Also, the IC50 on MAO-A turned out to be 100 µM.

Consider `CCc1nc(-c2ccc(OCCCN3CCOCC3)cc2)no1` [Example 11, 3-[4-(3-morpholinopropoxy)phenyl]-5-ethyl-1,2,4-oxadiazole], for which, on MAO-B, the IC50 was 100 µM and the MAO-A/MAO-B is 2. Moreover, the IC50 on MAO-A turned out to be 200 µM.

For `CCc1nc(-c2ccc(OCCCN3CCCCC3)cc2)no1` [Example 12, 3-[4-(3-piperidinopropoxy)phenyl]5-ethyl-1,2,4-oxadiazole], the IC50 at MAO-B and on MAO-A was 100 µM throughout. For the same molecule, the MAO-A/MAO-B at MAO-B turned out to be 1.

For the molecule `CCc1nc(-c2ccc(OCCCN3CCN(C)CC3)cc2)no1` [Example 13, 3-[4-[3-(4-methylpiperazinyl)propoxy]phenyl]-5-ethyl-1,2,4-oxadiazole], on MAO-B, the IC50 was 100 µM and the MAO-A/MAO-B is 1. Moreover, the IC50 at MAO-A worked out at 100 µM.

Regarding `CCc1nc(-c2ccc(OCCCc3cccnc3)cc2)no1` [Example 14, 3-[4-[3-(3-pyridyl)propoxy]phenyl]-5-ethyl-1,2,4-oxadiazole], the 50% inhibitory concentration (IC50) came to 20 µM at MAO-B and 100 µM on MAO-A. The MAO-A/MAO-B on MAO-B is 5.
